This passage reports Ki results from ChEMBL document CHEMBL1135851, “Synthesis and biological evaluation of pyridine-modified analogues of 3-(2-aminoethoxy)pyridine as novel nicotinic receptor ligands” (Bioorg Med Chem Lett, 2002).

Molecular target in the first test: not listed separately
Description: Ability to displace radioligand [3H](-)-cytisine from Neuronal nicotinic receptor in rat brain membrane was determined. The class given is cell membranes.
With `Clc1ccc(OC[C@H]2CCN2)cn1` [TEBANICLINE], the Ki is 0.05 nM.

Another test has as its target Neuronal acetylcholine receptor. Description: Ability to displace radioligand [3H](-)-cytisine from Nicotinic acetylcholine receptor in rat brain membrane. The class given is cell membranes.
With `CNCCOc1cncc(Cl)c1`, the Ki turned out to be 37 nM.

Consider `CN[C@H](COc1cnc(Cl)c(/C=C/c2ccncc2)c1)Cc1ccccc1`, for which affinity was put at a Ki of 2.6 nM.

`CNCCOc1ccc(OC)nc1` came in with a Ki of 620 nM.

Consider `CN(C)CCOc1cncc(Br)c1`, for which the affinity, expressed as Ki, was 50 nM.

Molecule `CN[C@H](COc1cccnc1)Cc1ccccc1` showed a Ki of 690 nM.

Molecule `C[C@@H](N)COc1ccc(Cl)nc1` had an inhibitory constant (Ki) of 5.3 nM.

On to `CN[C@@H](C)COc1ccc(Cl)nc1`, for which affinity was put at a Ki of 41 nM.

Take `CN[C@H](C)COc1cnc(Cl)c(C)c1`: the affinity corresponds to a Ki of 0.57 nM.

In turn, `CN[C@H](C)COc1ccc(F)nc1` yielded a Ki of 11 nM.

On to `N[C@H](COc1cnc(Cl)c(Br)c1)Cc1ccccc1`, for which the Ki amounted to 100 nM.

Take `NCCOc1cncc(Cl)c1`: the affinity, expressed as Ki, was 140 nM.

`CN(C)[C@H](COc1cnc(Cl)c(Br)c1)Cc1ccccc1` displayed a Ki of 320 nM. This Ki lies about 2.3-fold higher than the previous one.

`CNCCOc1cncc(N)c1` came in with a Ki of 27 nM. Compared with the last molecule, the Ki is about 12-fold lower.

`C[C@@H](COc1cnc(Cl)c(/C=C/c2ccncc2)c1)N(C)C`: the Ki came out at 0.37 nM.

In turn, `C[C@H](N)COc1ccc(Cl)nc1` gave a Ki of 4.5 nM.

`CC[C@H](N)COc1cnc(Cl)c(Br)c1`: the affinity, expressed as Ki, was 15 nM. This Ki lies about 3.3-fold higher than the previous one.

Take `CN(C)[C@H](COc1cnc(Cl)c(/C=C/c2ccncc2)c1)Cc1ccccc1`: the Ki was determined as 4.6 nM.

In turn, `CNCCOc1cncc([N+](=O)[O-])c1` gave a Ki of 560 nM.

`Cc1cc(OC[C@@H](C)N(C)C)cnc1Cl` yielded an inhibition constant (Ki) of 7.2 nM. Against the preceding molecule, the Ki is about 78-fold lower.

For `C[C@@H](N)COc1cnc(Cl)c(/C=C/c2ccncc2)c1`, affinity was put at a Ki of 0.081 nM.

`Cc1cc(OC[C@@H](C)N)cnc1Cl` came in with a Ki of 0.98 nM.

In turn, `CN[C@@H](C)COc1cnc(Cl)c(Br)c1` yielded a Ki of 11 nM.

`CNCCOc1ccc(C)nc1` displayed a Ki of 43 nM. This Ki is about 3.9-fold higher than that of the molecule before.

In turn, `CNCCOc1cccnc1` came in with a Ki of 17 nM.

As to `CC[C@H](N)COc1ccc(Cl)nc1`, the Ki came out at 15 nM. The Ki values of the last two molecules are within 1.5-fold of each other.

In the case of `CN[C@H](C)COc1cnc(Cl)c(/C=C/c2ccncc2)c1`, the Ki came out at 0.077 nM.

The molecule `C[C@@H](N)COc1cnc(Cl)c(Br)c1` came in with an inhibition constant Ki of 1.5 nM. Against the preceding molecule, the Ki is about 19-fold higher.

Molecule `CN(C)CCOc1cnc(Cl)c(Br)c1` came in with a Ki of 7.1 nM.

`CN[C@H](C)COc1ccc(Cl)nc1` had a Ki of 5.9 nM.

Turning to `C[C@H](N)COc1cnc(Cl)c(Br)c1`, the Ki came out at 1.5 nM.

The molecule `CN(C)[C@@H](CCCl)COc1cncc(C(F)(F)F)c1` showed a Ki of 5.5 nM.

The molecule `CNCCOc1cnc(Cl)c(Br)c1` came in with a Ki of 14.3 nM.

Consider `C[C@H](N)COc1ccc(F)nc1`, for which the Ki amounted to 8.7 nM. This Ki is about 1.6-fold lower than that of the molecule before.

With `C[C@@H](N)COc1ccc(F)nc1`, the Ki amounted to 6.6 nM.

`C[C@H](COc1ccc(F)nc1)N(C)C` had a Ki of 70 nM.

As to `CNCCOc1cnc(Cl)c(Cl)c1`, the Ki turned out to be 13 nM.

Take `Cc1cc(OC[C@H](C)N(C)C)cnc1Cl`: the affinity corresponds to a Ki of 9.6 nM.

Consider `CN[C@@H](C)COc1cnc(Cl)c(C)c1`, for which the Ki was found to be 5.5 nM. This Ki lies about 1.7-fold lower than the previous one.

In turn, `C[C@@H](COc1ccc(F)nc1)N(C)C` yielded a Ki of 100 nM. Compared with the last molecule, the Ki is about 18-fold higher.

With `CC[C@@H](COc1ccc(F)nc1)NC`, the Ki was 220 nM. Against the preceding molecule, the Ki is about 2.2-fold higher.

The molecule `CN(C)CCOc1cnc(Cl)c(Cl)c1` gave a Ki of 16 nM.

In turn, `C[C@H](N)COc1cnc(Cl)c(/C=C/c2ccncc2)c1` displayed a Ki of 0.076 nM.

With `CN[C@@H](C)COc1ccc(F)nc1`, affinity was put at a Ki of 69 nM.

In the case of `N[C@H](COc1cnc(Cl)c(/C=C/c2ccncc2)c1)Cc1ccccc1`, the affinity, expressed as Ki, was 9.9 nM.

Take `CN(C)CCOc1cncc([N+](=O)[O-])c1`: affinity was put at a Ki of 260 nM. Against the preceding molecule, the Ki is about 26-fold higher.

For the molecule `CC[C@@H](COc1cnc(Cl)c(/C=C/c2ccncc2)c1)N(C)C`, the affinity, expressed as Ki, was 3.6 nM.

For `C[C@H](COc1cnc(Cl)c(Br)c1)N(C)C`, the Ki stood at 12 nM.

For `Cc1cc(OC[C@H](C)N)cnc1Cl`, the affinity, expressed as Ki, was 0.52 nM.

In turn, `CN(C)CCOc1cncc(Cl)c1` registered a Ki of 74 nM.

Regarding `CN[C@H](COc1cnc(Cl)c(Br)c1)Cc1ccccc1`, the Ki came out at 85 nM.

In the case of `COc1ccc(OCCN(C)C)cn1`, the Ki is 406 nM. This Ki is about 4.8-fold higher than that of the molecule before.

In turn, `CN(C)CCOc1ccc(Cl)nc1` returned a Ki of 79 nM.

`CN[C@H](C)COc1cnc(Cl)c(Br)c1`: the Ki was determined as 1.5 nM.

On to `CNCCOc1ccc(Cl)nc1`, for which the affinity corresponds to a Ki of 22 nM.

`CN(C)CCOc1cncc(C(F)(F)F)c1`: the affinity, expressed as Ki, was 250 nM.

`C[C@@H](COc1cnc(Cl)c(Br)c1)N(C)C` gave a Ki of 31 nM.

As for `Cc1ccc(OCCN(C)C)cn1`, affinity was put at a Ki of 140 nM.

In turn, `CC[C@H](N)COc1cnc(Cl)c(/C=C/c2ccncc2)c1` returned a Ki of 0.18 nM.

Take `CC[C@H](N)COc1ccc(F)nc1`: the Ki turned out to be 39 nM.

`C[C@H](COc1cnc(Cl)c(/C=C/c2ccncc2)c1)N(C)C` had a Ki of 0.1 nM.
